Measurements reported in PMC8151276, “An Integrated Approach toward NanoBRET Tracers for Analysis of GPCR Ligand Engagement” (Molecules, 2021).

Assays:
Type in all cases: binding
VIPR2 = target: T1, VIPR2 (Homo sapiens, UniProt P41587); test: NanoBRET screen HiBiT-VIPR2 in HEK293
T1 construct: purchased Promega (in-house HiBiT-GPCR construct library, NanoBRET)
T1 sequence (P41587 24-438): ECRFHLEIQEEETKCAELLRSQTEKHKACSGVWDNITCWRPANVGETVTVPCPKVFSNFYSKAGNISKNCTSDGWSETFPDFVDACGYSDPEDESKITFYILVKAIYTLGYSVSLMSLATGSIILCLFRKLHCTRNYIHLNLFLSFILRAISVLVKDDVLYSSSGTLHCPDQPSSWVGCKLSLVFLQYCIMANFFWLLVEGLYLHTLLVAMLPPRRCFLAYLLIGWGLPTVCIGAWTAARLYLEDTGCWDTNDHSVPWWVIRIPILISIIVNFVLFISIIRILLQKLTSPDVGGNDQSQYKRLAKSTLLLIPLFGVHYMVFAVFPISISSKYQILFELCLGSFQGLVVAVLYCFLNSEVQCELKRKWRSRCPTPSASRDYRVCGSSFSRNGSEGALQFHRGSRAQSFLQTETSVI
Description: (§1) Each tracer candidate was screened across the entire library of HiBiT-GPCR constructs using NanoBRET as the detection modality. As depicted in Figure 4A, the specificity of interactions was evaluated through decrease in BRET due to competitive displacement of a bound tracer by excess parental compound. Each tracer was analyzed for binding to each HiBiT-GPCR fusion in the absence and in the presence of competing parental compound. Briefly, HEK293 cells were transfected with HiBiT-GPCR constructs diluted into promoterless DNA to reduce expression and maximize translocation to the cell surface. Each tracer candidate was then screened at concentrations of 1 μM and 0.1 μM across cells expressing these fusions. Cells were treated for 1.5 h with tracer either alone or in the presence of 20 μM competing parental compound (i.e., control). BRET was measured upon addition of purified LgBiT and subsequent complementation with HiBiT genetically fused to a GPCR. The specificity of interactions was assessed through a decrease in BRET signal due to competitive displacement of the bound tracer. To further gauge the robustness of these interactions, the fold response over the control (i.e., BRETtracer/BRETcontrol) was calculated. We chose a 1.5-fold response, which translates to ≥7-fold signal over noise as the minimal threshold required to score an interaction as positive. […]. Below we highlight the screening results obtained for our exemplary fluorescent tracers based on Clozapine, Amitriptyline and AZD1283.
(§2) HiBiT-GPCR DNA constructs were diluted in 10 mM Tris pH 8 to a final concentration of 0.01 μg/μL, arrayed in 96-well plates and stored at −20 °C. For transfection, HEK293 cells were suspended in Opti-MEM (without phenol red) supplemented with 2% fetal bovine serum (Seradigm) and 100 units/mL penicillin–streptomycin (Gibco) at a final concentration of 220,000 cells/mL and dispensed into white 96-well plates at 90 μL/well. Subsequent transfections and screens were carried using an Agilent Bravo Automated Liquid Handling Platform. First, the 96-well HiBiT DNA arrays were diluted 25-fold in Opti-MEM (without serum or phenol red) to a final concentration of 0.0004 μg/μL and 20 μL of the diluted DNAs were transferred into new 96-well plates. Next, promoterless carrier DNA (1 μg/μL) was diluted 25-fold (0.04 μg/μL) and then dispensed into the diluted arrays at 20 μL/well. Following brief mixing, Viafect transfection reagent (Promega) diluted 16-fold into Opti-MEM was dispensed into the plates at 40 μL/well. After mixing by pipetting, plates were incubated for 10 min on the pipetting station deck. The DNA-transfection reagent complexes were then added to plates containing cells. To facilitate the screen, 10 μL of DNA-transfection reagent complexes were added in duplicates to the top 4 and bottom 4 rows, resulting in two identical 48-well arrays per plate. Plates with transfected cells were incubated for 18–20 h at 37 °C/5% CO2. A screen of each tracer across the entire library using two different concentrations requires duplicate plates of transfected cells. Depending on the number of tracers being screened, transfections can be scaled up using the same ratios. The next day, for each tracer, four 20× screening solutions in tracer dilution buffer (Promega) were prepared: two duplicates at final concentration of 20 μM and two duplicates at a final concentration of 2 μM. A competing unmodified compound was added to one of each duplicate at a final concentration of 400 μM. The four resulting solutions were diluted 4-fold in Opti-MEM without serum or phenol red to generate 5× solutions (5 µM and 0.5 µM tracer +/− 100 μM competing compound). To screen the library, a BioTek MultiFlo FX liquid dispenser was used to dispense 22.5 µL of tracer solution to the top 4 rows and 22.5 µL tracer + competing compound solution to the 4 bottom rows. Plates were briefly mixed on an orbital shaker and incubated for 1.5 h at room temperature. […]

SSTR3 = target: T2, SSTR3 (Homo sapiens, UniProt P32745); test: NanoBRET screen HiBiT-SSTR3 in HEK293
T2 construct: purchased Promega (in-house HiBiT-GPCR construct library, NanoBRET)
T2 sequence (P32745 whole entry): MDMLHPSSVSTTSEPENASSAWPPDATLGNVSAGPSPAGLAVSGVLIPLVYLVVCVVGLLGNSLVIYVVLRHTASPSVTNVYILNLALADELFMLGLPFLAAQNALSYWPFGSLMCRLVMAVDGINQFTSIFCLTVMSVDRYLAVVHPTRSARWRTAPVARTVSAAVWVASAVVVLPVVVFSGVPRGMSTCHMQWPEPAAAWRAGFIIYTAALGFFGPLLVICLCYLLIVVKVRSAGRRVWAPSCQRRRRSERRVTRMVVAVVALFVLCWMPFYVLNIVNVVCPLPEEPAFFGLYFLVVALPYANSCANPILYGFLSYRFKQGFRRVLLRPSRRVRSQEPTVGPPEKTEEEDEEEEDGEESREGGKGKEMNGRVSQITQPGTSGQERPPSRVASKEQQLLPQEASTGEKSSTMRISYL
Description: as §1, §2

EDNRA = target: T3, EDNRA (Homo sapiens, UniProt P25101); test: NanoBRET screen HiBiT-EDNRA in HEK293
T3 construct: purchased Promega (in-house HiBiT-GPCR construct library, NanoBRET)
T3 sequence (P25101 21-427): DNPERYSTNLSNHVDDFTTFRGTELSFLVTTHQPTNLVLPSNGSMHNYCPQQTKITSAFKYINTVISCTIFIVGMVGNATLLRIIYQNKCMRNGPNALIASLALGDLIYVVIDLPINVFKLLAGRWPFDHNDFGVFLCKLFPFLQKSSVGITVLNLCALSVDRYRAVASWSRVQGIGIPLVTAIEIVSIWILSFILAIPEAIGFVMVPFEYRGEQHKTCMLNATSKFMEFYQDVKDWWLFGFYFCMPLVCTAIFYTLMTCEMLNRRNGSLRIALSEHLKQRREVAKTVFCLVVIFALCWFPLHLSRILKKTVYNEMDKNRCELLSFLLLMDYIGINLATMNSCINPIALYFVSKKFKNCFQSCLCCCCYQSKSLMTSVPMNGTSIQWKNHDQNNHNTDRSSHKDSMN
Description: as §1, §2

CCR4 = target: T4, CCR4 (Homo sapiens, UniProt P51679); test: NanoBRET screen HiBiT-CCR4 in HEK293
T4 construct: purchased Promega (in-house HiBiT-GPCR construct library, NanoBRET)
T4 sequence (P51679 1-360): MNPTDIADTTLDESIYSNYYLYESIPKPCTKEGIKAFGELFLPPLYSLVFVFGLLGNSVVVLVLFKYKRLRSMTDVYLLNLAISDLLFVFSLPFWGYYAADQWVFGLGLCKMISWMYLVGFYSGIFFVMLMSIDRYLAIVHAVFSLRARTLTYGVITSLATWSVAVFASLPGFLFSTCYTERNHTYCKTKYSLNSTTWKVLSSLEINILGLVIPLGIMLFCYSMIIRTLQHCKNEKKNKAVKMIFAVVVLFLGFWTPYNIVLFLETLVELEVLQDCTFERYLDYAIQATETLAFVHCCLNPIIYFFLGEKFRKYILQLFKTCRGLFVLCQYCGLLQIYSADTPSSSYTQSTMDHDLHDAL
Description: as §1, §2

FZD1 = target: T5, FZD1 (Homo sapiens, UniProt Q9UP38); test: NanoBRET screen HiBiT-FZD1 in HEK293
T5 construct: purchased Promega (in-house HiBiT-GPCR construct library, NanoBRET)
T5 sequence (Q9UP38 70-647): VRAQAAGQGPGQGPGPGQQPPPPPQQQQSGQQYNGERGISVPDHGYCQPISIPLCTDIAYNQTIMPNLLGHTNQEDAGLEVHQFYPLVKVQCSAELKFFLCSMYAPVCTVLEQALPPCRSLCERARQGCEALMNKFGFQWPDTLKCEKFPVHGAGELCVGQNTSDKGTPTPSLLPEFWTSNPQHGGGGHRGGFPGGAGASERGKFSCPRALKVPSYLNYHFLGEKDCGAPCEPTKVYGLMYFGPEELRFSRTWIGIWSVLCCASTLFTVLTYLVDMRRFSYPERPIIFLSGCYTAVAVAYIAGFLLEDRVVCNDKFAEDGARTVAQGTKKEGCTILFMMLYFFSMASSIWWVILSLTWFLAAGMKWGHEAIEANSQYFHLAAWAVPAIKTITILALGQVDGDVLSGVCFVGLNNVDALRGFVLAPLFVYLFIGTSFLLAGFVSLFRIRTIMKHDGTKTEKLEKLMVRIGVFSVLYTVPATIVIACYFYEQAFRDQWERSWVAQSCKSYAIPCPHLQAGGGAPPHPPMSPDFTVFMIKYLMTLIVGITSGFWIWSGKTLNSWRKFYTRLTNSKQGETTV
Description: as §1, §2

| SMILES | NanoBRET Fold Response (VIPR2; VIPR2, tracer 0.1μM) | NanoBRET Fold Response (VIPR2; VIPR2, tracer 1μM) | NanoBRET Fold Response (SSTR3; SSTR3, tracer 0.1μM) | NanoBRET Fold Response (SSTR3; SSTR3, tracer 1μM) | NanoBRET Fold Response (EDNRA; EDNRA, tracer 0.1μM) | NanoBRET Fold Response (EDNRA; EDNRA, tracer 1μM) | NanoBRET Fold Response (CCR4; CCR4, tracer 0.1μM) | NanoBRET Fold Response (CCR4; CCR4, tracer 1μM) | NanoBRET Fold Response (FZD1; FZD1, tracer 0.1μM) | NanoBRET Fold Response (FZD1; FZD1, tracer 1μM) | further results |
| --- | --- | --- | --- | --- | --- | --- | --- | --- | --- | --- | --- |
| O=C(CCc1ccc2n1[B-](F)(F)[N+]1=C(c3ccc[nH]3)C=CC1=C2)NCc1ccc(C(=O)NCCOCCC(=O)N[C@@H]2CC[C@@]3(O)[C@H]4Cc5ccc(O)c6c5[C@@]3(CCN4CC3CC3)[C@H]2O6)cc1 [Naltrexone-3-NB590] | 1.17 | 1.05 | 0.97 | 1.01 | 1.00 | 0.98 | 0.32 | 0.97 | 1.07 | 1.05 | – |
| CC(C)N(CC[C@H](c1ccccc1)c1cc(CCNC(=O)CCOCCOCCOCCOCCNC(=O)CCc2ccc3n2[B-](F)(F)[N+]2=C(c4ccc[nH]4)C=CC2=C3)ccc1O)C(C)C [Tolterodine-2-NB590] | 0.98 | 1.04 | 1.08 | 1.17 | 0.94 | 1.01 | 1.29 | 1.16 | 0.97 | 0.97 | – |
| Cc1nc2n(c(=O)c1CCN1CCC(c3noc4cc(F)ccc34)CC1)CCCC2OC(=O)NCCOCCOCCOCCOCCNC(=O)CCc1ccc2n1[B-](F)(F)[N+]1=C(c3ccc[nH]3)C=CC1=C2 (stereo not shown) [Risperidone-2-NB590] | 1.03 | 0.91 | 0.92 | 0.99 | 1.04 | 0.97 | 1.01 | 1.22 | 1.02 | 1.00 | – |
| O=C(CCOCCOCCOCCOCCNC(=O)CCc1ccc2n1[B-](F)(F)[N+]1=C(c3ccc[nH]3)C=CC1=C2)NCCCN1CCN(C2=Nc3cc(Cl)ccc3Nc3ccccc32)CC1 [Clozapine-a-2-NB590] | – | – | – | – | – | – | – | – | – | – | NanoBRET Fold Response (VIPR2; VIPR2, 0.1μM tracer): 1.14; NanoBRET Fold Response (VIPR2; VIPR2, 1μM tracer): 0.89; NanoBRET Fold Response (SSTR3; SSTR3, 0.1μM tracer): 0.91; NanoBRET Fold Response (SSTR3; SSTR3, 1μM tracer): 1.05; NanoBRET Fold Response (EDNRA; EDNRA, 0.1μM tracer): 1.04; NanoBRET Fold Response (EDNRA; EDNRA, 1μM tracer): 0.90; NanoBRET Fold Response (CCR4; CCR4, 0.1μM tracer): 1.05; NanoBRET Fold Response (CCR4; CCR4, 1μM tracer): 0.85; NanoBRET Fold Response (FZD1; FZD1, 0.1μM tracer): 0.98; NanoBRET Fold Response (FZD1; FZD1, 1μM tracer): 0.93 |
| COc1ccc2[nH]c(-c3ccc(CNC(=O)CCOCCOCCOCCOCCNC(=O)CCc4ccc5n4[B-](F)(F)[N+]4=C(c6ccc[nH]6)C=CC4=C5)cc3)c(CCNC(C)=O)c2n1 [AzomelatoninICO9-2-NB590] | – | – | – | – | – | – | – | – | – | – | NanoBRET Fold Response (VIPR2; 0.1μM tracer): 0.99; NanoBRET Fold Response (VIPR2; 1μM tracer): 1.12; NanoBRET Fold Response (SSTR3; 0.1μM tracer): 0.94; NanoBRET Fold Response (SSTR3; 1μM tracer): 1.01; NanoBRET Fold Response (EDNRA; 0.1μM tracer): 0.87; NanoBRET Fold Response (EDNRA; 1μM tracer): 0.99; NanoBRET Fold Response (CCR4; 0.1μM tracer): 1.23; NanoBRET Fold Response (CCR4; 1μM tracer): 0.96; NanoBRET Fold Response (FZD1; 0.1μM tracer): 0.86; NanoBRET Fold Response (FZD1; 1μM tracer): 1.05 |
| CN1CCN(C2=Nc3cc(Cl)ccc3Nc3ccc(CNC(=O)CCOCCOCCOCCOCCNC(=O)CCc4ccc5n4[B-](F)(F)[N+]4=C(c6ccc[nH]6)C=CC4=C5)cc32)CC1 [Clozapine-b-2-NB590] | – | – | – | – | – | – | – | – | – | – | NanoBRET Fold Response (VIPR2; VIPR2, 0.1μM tracer): 1.02; NanoBRET Fold Response (VIPR2; VIPR2, 1μM tracer): 0.96; NanoBRET Fold Response (SSTR3; SSTR3, 0.1μM tracer): 0.99; NanoBRET Fold Response (SSTR3; SSTR3, 1μM tracer): 1.02; NanoBRET Fold Response (EDNRA; EDNRA, 0.1μM tracer): 0.99; NanoBRET Fold Response (EDNRA; EDNRA, 1μM tracer): 1.03; NanoBRET Fold Response (CCR4; CCR4, 0.1μM tracer): 1.04; NanoBRET Fold Response (CCR4; CCR4, 1μM tracer): 0.96; NanoBRET Fold Response (FZD1; FZD1, 0.1μM tracer): 1.00; NanoBRET Fold Response (FZD1; FZD1, 1μM tracer): 0.99 |
| COc1ccccc1N1CCN(CCCCN2C(=O)c3ccc(CNC(=O)CCOCCNC(=O)c4ccc(CNC(=O)CCc5ccc6n5[B-](F)(F)[N+]5=C(c7ccc[nH]7)C=CC5=C6)cc4)cc3C2=O)CC1 [NAN-190-3-NB590] | 0.98 | 0.87 | 1.07 | 0.93 | 1.01 | 1.21 | 0.85 | 1.11 | 0.83 | 1.01 | – |
